Values quoted from earlier work, collected in patent publication US20150191797A1, “SYSTEMS AND METHODS FOR DIAGNOSING A PREDISPOSITION TO COLON CANCER” (Institute for Cancer Research d/b/a The Research Institute …, priority 2012, published 2015).

Tested on: Werner cells
Conditions: camptothecin doses of 20-50 nM

CC[C@@]1(O)C(=O)OCc2c1cc1n(c2=O)Cc2cc3ccccc3nc2-1 [Camptothecin, camptothecin]
effect on cell cycle: S phase delay
increase in apoptosis: 5-6 fold
